Patent US20110318741A1, “BIOMARKERS FOR THE TREATMENT OF PSORIASIS” (priority 2010, published 2011)

How the values were obtained:
[1] = test system: recalcitrant psoriasis vulgaris; assay: PASI score in phase 2, multi-center, open-label study; format: in vivo, human; details: for PSAI Median Change (%): 20 mg BID; for subjects who had PASI-75 response: week 12
Text: (§1) The pharmacodynamic effects of (S)—N-(2-(1-(3-ethoxy-4-methoxyphenyl)-2-(methylsulfonyl)ethyl)-1,3-dioxoisoindolin-4-yl)acetamide were studied in skin biopsies from subjects treated with the compound in a phase 2, multi-center, open-label study evaluating the safety, tolerability, and efficacy of the compound in recalcitrant psoriasis vulgaris. Skin biopsies were taken from uninvolved and involved skin at baseline, and from involved skin after treatment with (S)—N-(2-(1-(3-ethoxy-4-methoxyphenyl)-2-(methylsulfonyl)ethyl)-1,3-dioxoisoindolin-4-yl)acetamide 20 mg BID after 4 and 12 weeks.
Additionally, the reductions observed from biopsies were evaluated separately in responders and non-responders.
To identify changes in cellular infiltration or gene expression that correlate with changes in PASI score, a correlation analysis was performed using the Spearman rank-order correlation method. […] A strong trend was observed between the decrease in CD11c+myeloid DC in the epidermis the decrease in PASI score at week 4 (p=0.052).

psoriasis lesional skin = assay: Histological analysis (immunohistochemistry, H&E) of skin biopsies from psoriasis patients in a clinical trial; format: in vivo, human; details: 20 mg BID
Experimental: Skin biopsies were evaluated on 20 patients in a clinical trial, where 20 mg of (S)—N-(2-(1-(3-ethoxy-4-methoxyphenyl)-2-(methylsulfonyl)ethyl)-1,3-dioxoisoindolin-4-yl)acetamide was administered b.i.d. to patients with psoriasis. Skin biopsies were done 4 weeks and 12 weeks post-treatment.
The biopsies were subjected to a histological analysis in which response was assessed in H&E stained sections of skin biopsies and after staining frozen sections of skin biopsies with antibodies to keratin 16. CD3, CD11c. ICAM-1. Langerin, CD56, Foxp3, and HLA-DR. This analysis thus included an assessment of epidermal growth/differentiation, skin infiltration by T-cells and DC subsets, presence of regulatory T-cells, and presence of inflammation-regulating molecules in skin lesions.
as §1
Skin biopsies were evaluated on 20 patients in this trial. The biopsies were analyzed by immunohistochemistry for a set of cellular markers (keratin 16, CD3. CD11c. ICAM-1, Langerin, CD56, Foxp3, and HLA-DR) to assess epidermal growth/differentiation, skin infiltration by T-cells and dendritic cells (DC), presence of regulatory T-cells, and the presence of inflammation-regulating molecules in skin lesions.

CCOc1cc([C@@H](CS(C)(=O)=O)N2C(=O)c3cccc(NC(C)=O)c3C2=O)ccc1OC [(S)—N-(2-(1-(3-ethoxy-4-methoxyphenyl)-2-(methylsulfonyl)ethyl)-1,3-dioxoisoindolin-4-yl)acetamide]
PSAI Median Change (%) ([1]; Week 4, subjects also with CD3 in Dermis values, No. 19): −29.0% | PSAI Median Change (%) ([1]; Week 4, subjects also with CD3 in Epidermis values, No. 19): −29.0% | PSAI Median Change (%) ([1]; Week 4, subjects also with CD11c in Dermis values, No. 20): −32.0% | PSAI Median Change (%) ([1]; Week 4, subjects also with CD11c in Epidermis values, No. 18): −26.5% | PSAI Median Change (%) ([1]; Week 4, subjects also with CD56 in Dermis values, No. 20): −32.0% | PSAI Median Change (%) ([1]; Week 4, subjects also with CD56 in Epidermis values, No. 16): −15.0% | PSAI Median Change (%) ([1]; Week 4, subjects also with CD83/hARP values, No. 15): −18.0% | PSAI Median Change (%) ([1]; Week 4, subjects also with CXCL9/hARP values, No. 17): −29.0% | PSAI Median Change (%) ([1]; Week 4, subjects also with DEFB4/hARP values, No. 16): −23.5% | PSAI Median Change (%) ([1]; Week 4, subjects also with IFNγ/hARP values, No. 15): −35.0% | PSAI Median Change (%) ([1]; Week 4, subjects also with IL-2/hARP values, No. 12): −32.0% | PSAI Median Change (%) ([1]; Week 4, subjects also with IL-8/hARP values, No. 18): −32.0% | PSAI Median Change (%) ([1]; Week 4, subjects also with IL-10/hARP values, No. 18): −32.0% | PSAI Median Change (%) ([1]; Week 4, subjects also with IL-17A/hARP values, No. 16): −23.5% | PSAI Median Change (%) ([1]; Week 4, subjects also with IL-22/hARP values, No. 10): −18.5% | PSAI Median Change (%) ([1]; Week 4, subjects also with K16/hARP values, No. 18): −32.0% | PSAI Median Change (%) ([1]; Week 4, subjects also with Langerin in Dermis values, No. 17): −18.0% | PSAI Median Change (%) ([1]; Week 4, subjects also with Langerin in Epidermis values, No. 20): −32.0% | PSAI Median Change (%) ([1]; Week 4, subjects also with MX1/hARP values, No. 17): −29.0% | PSAI Median Change (%) ([1]; Week 4, subjects also with TNFα/hARP values, No. 17): −29.0% | PSAI Median Change (%) ([1]; Week 4, subjects also with Thickness values, No. 19): −29.0% | PSAI Median Change (%) ([1]; Week 4, subjects also with iNOS/hARP values, No. 15): −35.0% | PSAI Median Change (%) ([1]; Week 4, subjects also with p19/hARP values, No. 18): −32.0% | PSAI Median Change (%) ([1]; Week 4, subjects also with p40/hARP values, No. 13): −29.0% | PSAI Median Change (%) ([1]; Week 12, subjects also with CD3 in Dermis values, No. 15): −48.0% | PSAI Median Change (%) ([1]; Week 12, subjects also with CD3 in Epidermis values, No. 15): −48.0% | PSAI Median Change (%) ([1]; Week 12, subjects also with CD11c in Dermis values, No. 14): −52.5% | PSAI Median Change (%) ([1]; Week 12, subjects also with CD11c in Epidermis values, No. 13): −45.0% | PSAI Median Change (%) ([1]; Week 12, subjects also with CD56 in Dermis values, No. 15): −48.0% | PSAI Median Change (%) ([1]; Week 12, subjects also with CD56 in Epidermis values, No. 12): −42.5% | PSAI Median Change (%) ([1]; Week 12, subjects also with CD83/hARP values, No. 11): −48.0% | PSAI Median Change (%) ([1]; Week 12, subjects also with CXCL9/hARP values, No. 11): −48.0% | PSAI Median Change (%) ([1]; Week 12, subjects also with DEFB4/hARP values, No. 10): −46.5% | PSAI Median Change (%) ([1]; Week 12, subjects also with IFNγ/hARP values, No. 12): −54.0% | PSAI Median Change (%) ([1]; Week 12, subjects also with IL-2/hARP values, No. 10): −54.0% | PSAI Median Change (%) ([1]; Week 12, subjects also with IL-8/hARP values, No. 14): −54.0% | PSAI Median Change (%) ([1]; Week 12, subjects also with IL-10/hARP values, No. 14): −54.0% | PSAI Median Change (%) ([1]; Week 12, subjects also with IL-17A/hARP values, No. 10): −46.5% | PSAI Median Change (%) ([1]; Week 12, subjects also with IL-22/hARP values, No. 6): −46.5% | PSAI Median Change (%) ([1]; Week 12, subjects also with K16/hARP values, No. 14): −54.0% | PSAI Median Change (%) ([1]; Week 12, subjects also with Langerin in Dermis values, No. 12): −54.0% | PSAI Median Change (%) ([1]; Week 12, subjects also with Langerin in Epidermis values, No. 15): −48.0% | PSAI Median Change (%) ([1]; Week 12, subjects also with MX1/hARP values, No. 11): −48.0% | PSAI Median Change (%) ([1]; Week 12, subjects also with TNFα/hARP values, No. 13): −60.0% | PSAI Median Change (%) ([1]; Week 12, subjects also with Thickness values, No. 14): −46.5% | PSAI Median Change (%) ([1]; Week 12, subjects also with iNOS/hARP values, No. 11): −48.0% | PSAI Median Change (%) ([1]; Week 12, subjects also with p19/hARP values, No. 14): −54.0% | PSAI Median Change (%) ([1]; Week 12, subjects also with p40/hARP values, No. 7): −48.0% | subjects who had PASI-75 response ([1]; IFNγ analysis set (eight subjects non PASI-75)): four | subjects who had PASI-75 response ([1]; Langerin in dermis analysis set (ten subjects non PASI-75)): four | CD3+ T cells in the epidermis and dermis (psoriasis lesional skin): significant reductions
